From publication PMC4187505 (Journal of the American Heart Association: Cardiovascular …, 2014) come the findings set out here.

For data set [1], the target named is hlipocalin-2 (human lipocalin-2, neutrophil gelatinase-associated lipocalin) (Homo sapiens, UniProt P80188). Briefly: isothermal titration calorimetry. It is filed as binding.
The data set “nonreducing SDS-PAGE” concerns the molecule itself. Briefly: nonreducing SDS-PAGE.

Sequence of hlipocalin-2 (human lipocalin-2, neutrophil gelatinase-associated lipocalin) (P80188 21-198): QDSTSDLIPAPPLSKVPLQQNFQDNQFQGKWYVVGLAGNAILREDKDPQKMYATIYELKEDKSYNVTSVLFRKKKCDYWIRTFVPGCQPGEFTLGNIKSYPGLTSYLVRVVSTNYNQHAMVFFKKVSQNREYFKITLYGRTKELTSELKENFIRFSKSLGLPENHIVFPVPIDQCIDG

The molecule `CCCCC/C=C\C/C=C\CCCCCCCC(=O)O` [linoleic acid] returned a Kd in data set [1] of 0.487 µM.

`CCCCCCCC/C=C\CCCCCCCC(=O)O` [oleic acid] returned a Kd in data set [1] of 1470 µM.

B1: human lipocalin‐2 mutant C87A (cysteine 87 replaced by alanine) (natural protein, UniProt P80188 21-198, looked up)
chain: QDSTSDLIPAPPLSKVPLQQNFQDNQFQGKWYVVGLAGNAILREDKDPQKMYATIYELKEDKSYNVTSVLFRKKKCDYWIRTFVPGAQPGEFTLGNIKSYPGLTSYLVRVVSTNYNQHAMVFFKKVSQNREYFKITLYGRTKELTSELKENFIRFSKSLGLPENHIVFPVPIDQCIDG
modifications: contains a significantly lesser amount of polyamines than wild type
With B1, the ratio of homodimer/monomer in the data set “nonreducing SDS-PAGE” is more than 10 homodimer/monomer.
